Experimental data: US11351209B2 (priority 2016, dated 2022)
“Also recorded” adds a separate entry of the source.

Experiments:
orthotopic 4T1 tumours = experiment: Efficacy study, oral IC87114 and intravenous VVL15, orthotopic 4T1 tumours; type: in vivo, BALB/c mice; settings: 4T1 orthotopic; IC87114 75 mg kg^−1 oral gavage three hours before intravenous 1×10^8 PFU VVL15 (Group D), days 12, 15, 17; vs all other groups
CT26 flank tumours = experiment: Efficacy study, oral IC87114 and intravenous VVL15, CT26 flank tumours; type: in vivo, BALB/c mice; settings: IC87114 50 mg kg^−1 oral gavage three hours before intravenous 1×10^8 PFU VVL15 (Group D), days 8, 11, 13, vs all other groups

SMILES: Cc1ccccc1-n1c(Cn2cnc3c(N)ncnc32)nc2cccc(C)c2c1=O [IC87114, 2-[(6-amino-9H-purin-9-yl)methyl]-5-methyl-3-(2-methylphenyl)-4(3H)-quinazolinone]
- tumour burden (orthotopic 4T1 tumours): significantly reduces the tumour burden; also recorded: significantly less tumour burden; also recorded: reduced tumour burden
- tumour burden (CT26 flank tumours): significantly reduces the tumour burden; also recorded: significantly less tumour burden; also recorded: reduced tumour burden
